Earlier results on one compound are cited in patent publication US20190167598A1, “A NOVEL TREATMENT REGIMEN INVOLVING SAPROPTERIN DIHYDROCHLORIDE” (DIPHARMA S.A., priority 2016, published 2019).

Each structure is given as a SMILES string.

For data set [1] the following is noted: neutral or basic conditions.
For data set [2] the following is noted: in vivo.

As to `C[C@H](O)[C@H](O)[C@H]1CNc2[nH]c(N)nc(=O)c2N1.Cl.Cl` [sapropterin, (6R)-2-amino-6-[(1R,2S)-1,2-dihydroxypropyl]-5,6,7,8-tetrahydropteridin-4(1H)-one dihydrochloride], the oxidation into dihydrobiopterin entry in data set [1] is reported as “readily oxidized”. In data set [2], the “sapropterin elimination half-life time” value was “about 4 h”.
